Source: paper PMC6179248, “Peanut-specific T cell responses in patients with different clinical reactivity” (PLoS ONE, 2018)

What was measured:
[1] = system: PBMC from peanut allergic and non-allergic donors (IL-5 production); test: IL-5 ELISPOT with individual peptides after 14-day in vitro expansion (epitope mapping); type: cell-based, human; settings: SFC per 10^6 PBMC, individual peptide 10 μg/ml, 24 h, after 14-day culture; for IL-5 Average SFC (allergics): allergic donors; for IL-5 Average SFC (controls): non-allergic controls
Procedure: (§1) For in vitro expansions, PBMCs were thawed and cultured in RPMI 1640 (Omega Scientific, Tarzana, CA) supplemented with 5% human AB serum (Gemini Bio-Products, West Sacramento, CA) at a density of 2 × 10^6 cells per mL in 24-well plates (Corning, San Diego, CA) and stimulated with peanut extract (10 μg/ml) or peptide pools at 5 μg/mL. Cells were kept at 37°C, 5% CO2, and additional IL-2 (10 U/mL; ThermoFisher, San Diego, CA) was added every 3 days after initial antigenic stimulation. On day 14, cells were harvested and reactivity against peanut extract (10 μg/ml), peanut specific peptide pools (5 μg/ml) and individual peptides (10 μg/ml) was assessed. The production of IL-5 and IFNγ post-stimulation with peanut extract was analyzed in dual ELISPOT assays. Flat-bottom 96-well nitrocellulose plates (Millipore, Bedford, MA) were prepared according to the manufacturer’s instructions and coated with either 10 μg/ml of both anti-human IL-5 (clone TRFK5) and anti-human IFNγ (clone 1-D1K) or anti-human IL-10 (clone 9D7) and anti-human IL-17 (clone MT44.6) (Mabtech, Cincinnati, OH). PBMC were then incubated at a density of 1 × 10^5/well either with peptide pools (5 μg/ml) or individual peptides (10 μg/ml), peanut extract (10 μg/ml), PHA (10 μg/ml), or medium containing 0.25% DMSO (corresponding to the highest percentage of DMSO in the pools/peptides condition) as a control. After 24 h, cells were removed, and plates were incubated with a cocktail containing either biotinylated anti-human IL-5 (1:50 dilution) (clone 5A10) and horseradish peroxidase (HRP)-conjugated anti-human IFNγ (1:200 dilution) (clone 7-B6-1) or biotinylated anti-human IL-17 (1:200 dilution) (clone MT504) anti-human alkaline phosphatase (AP)-conjugated IL-10 (1:200 dilution) (clone 12G8) (Mabtech, Cincinnati, OH) at 37°C. After 2 h, spots corresponding to the biotinylated IL-5 Ab were developed by incubation with Alkaline-phosphatase-Complex (Vector Laboratories, Burlingame, CA) and then visualized by applying the Vector Blue Alkaline Phosphatase Substrate Kit III (Vector Laboratories, Burlingame, CA) according to the manufacturer’s instructions. Spots corresponding to the HRP-conjugated anti-human IFNγ Ab were visualized by incubation with 3-amino-9-ethylcarvazole solution (Sigma-Aldrich, St. Louis, MO). Spots were counted by computer-assisted image analysis (KS-ELISPOT reader, Zeiss, Munich). Each assay was performed in triplicate. The level of statistical significance was determined with a Student t test using the mean of triplicate values of the response against relevant pools or individual peptides versus the response against the DMSO control. Criteria for response positivity were 20 spot-forming cells (SFCs)/10^6 PBMC, p ≤ 0.05, and a stimulation index (SI) ≥ 2. SFCs are measured per 10^5 PBMC, subsequently readings are background subtracted and multiplied by 10 to be expressed as SFC per million PBMC. T cell epitope mapping was performed to determine epitopes from the major peanut allergens Ara h 1, 2 and 3, recognized by peanut allergic (n = 11) and non-allergic (n = 10) donors. As these studies were performed with samples obtained from pediatric patients, available blood sample volumes were limiting. To overcome this limitation, small pools of predicted peptides matched to the HLA molecules expressed in each donor were tested. For each donor, class II binding affinity predictions were performed using algorithms available through the IEDB (www.iedb.org)[18], to identify the top 6 predicted binders for each of the alleles expressed at the four HLA class II loci (DRB1, DRB3/4/5, DQB1, and DPB1). Accordingly, the screening load for each donor was reduced from 400 peptides to a maximum of 48 peptides (6 peptides x ≤8 class II molecules, less for homozygous donors). The six top predicted peptides for each allele were used to generate allele-specific pools, which were in turn used to expand peanut-specific cells in vitro. […]

[2] = system: PBMC from peanut allergic and non-allergic donors (IFNγ production); test: IFNγ ELISPOT with individual peptides after 14-day in vitro expansion (epitope mapping); type: cell-based, human; settings: SFC per 10^6 PBMC, individual peptide 10 μg/ml, 24 h, after 14-day culture; for IFNg Average SFC (allergics): allergic donors; for IFNg Average SFC (controls): non-allergic controls
Procedure: as §1

| Sequence | IL-5 Average SFC (allergics) [1] [SFC] | IL-5 Average SFC (controls) [1] [SFC] | IFNg Average SFC (allergics) [2] [SFC] | IFNg Average SFC (controls) [2] [SFC] |
| --- | --- | --- | --- | --- |
| QEFLQHAFQVDRQTV [Ara h 3 15-mer, position 246] | 57 | 2210 | 0 | 390 |
| NTNAHSIIYALRGRA [Ara h 3 15-mer, position 416; P19 pool member] | 32 | 163 | 0 | 77 |
| GRIRVLQRFDQRSKQ [Ara h 1 15-mer, position 191; P19 pool member] | 253 | 66 | 49 | 197 |
| NHRIVQIEARPNTLV [Ara h 1 15-mer, position 211] |  | 427 |  | 303 |
| GRIRVLQRFDQRSRQ [Ara h 1 15-mer, position 191; P19 pool member] | 227 | 105 | 19 | 168 |
| SNREVRRYTARLKEG [Ara h 1 15-mer, position 493] | 20 | 527 | 42 | 108 |
| GHALRIPSGFISYIL [Ara h 1 15-mer, position 261] | 0 | 1080 | 0 | 0 |
| EQENEGSNIFSGFAQ [Ara h 3 15-mer, position 232] | 0 | 17 | 25 | 0 |
| SNAPQEIFIQQGRGY [Ara h 3 15-mer, position 86] |  | 45 |  | 0 |
| SIIYALRGRAHVQVV [Ara h 3 15-mer, position 421; P19 pool member] | 400 | 358 | 89 | 249 |
| TIVVALNGRAHVQVV [Ara h 3 15-mer, position 396] | 148 | 567 | 415 | 548 |
| EYVAFKTDSRPSIAN [Ara h 3 15-mer, position 471; P19 pool member] | 651 | 225 | 27 | 539 |
| NPINLREGEPDLSNN [Ara h 1 15-mer, position 396] |  | 457 |  | 240 |
| QEFLRYQQQSRQSRR [Ara h 3 15-mer, position 206; P19 pool member] | 295 | 47 | 15 | 72 |
| RLKEGDVFIMPAAHP [Ara h 1 15-mer, position 503] |  | 120 |  | 83 |
| QSENYEYLAFKTDSR [Ara h 3 15-mer, position 441] | 0 | 419 | 0 | 95 |
| EQGAIVTVKGGLRIL [Ara h 3 15-mer, position 271] | 0 | 182 | 0 | 220 |

| Sequence | IL-5 Average SFC (allergics) [1] [SFC] | IL-5 Average SFC (controls) [1] [SFC] | IFNg Average SFC (allergics) [2] [SFC] | IFNg Average SFC (controls) [2] [SFC] |
| --- | --- | --- | --- | --- |
| ALFLLAAHASARQQW [Ara h 2 15-mer, position 11] | 11 | 270 | 0 | 545 |
| QEFLRYQQQQGSRPH [Ara h 3 15-mer, position 206] | 0 | 144 | 13 | 61 |
| FQNLQNHRIVQIEAK [Ara h 1 15-mer, position 206; P19 pool member] | 74 | 0 | 0 | 0 |
| VTVRGGLRILSPDRK [Ara h 3 15-mer, position 301] | 196 | 44 | 19 | 93 |
| FVPHYTLNAHTIVVA [Ara h 3 15-mer, position 386] | 163 | 70 | 117 | 94 |
| LQDLDMMLTCVEIKE [Ara h 1 15-mer, position 426] | 0 | 403 | 0 | 158 |
| FCFLVLGASSISFRQ [Ara h 3 15-mer, position 11] |  | 25 |  | 0 |
| LILRWLGLSAEYGNL [Ara h 3 15-mer, position 391] | 53 | 1880 | 32 | 0 |
| GSRPHYRQISPRVRG [Ara h 3 15-mer, position 216] | 203 | 287 | 0 | 57 |
| TLNAHTIVVALNGRA [Ara h 3 15-mer, position 391] | 97 | 64 | 16 | 61 |
| GLRILSPDEEDESSR [Ara h 3 15-mer, position 281] |  | 403 |  | 293 |
| QRSRQFQNLQNHRIV [Ara h 1 15-mer, position 201] | 0 | 216 | 0 | 102 |
| FCVLVLGASSVTFRQ [Ara h 3 15-mer, position 11] | 0 | 28 | 22 | 0 |
| PHFNSKAMVIVVVNK [Ara h 1 15-mer, position 446] | 113 | 0 | 0 | 0 |
| DVFIMPAAHPVAINA [Ara h 1 15-mer, position 508] |  | 34 |  | 0 |
| SRTVLRRNALRRPFY [Ara h 3 15-mer, position 71] |  | 647 |  | 377 |
| KAMVIVVINKGTGNL [Ara h 1 15-mer, position 451] |  | 53 |  | 43 |
